Reference: patent US20220146526A1, “METHOD FOR EVALUATING SAMPLE, ANALYSIS METHOD, METHOD FOR DETECTING DEGRADED SAMPLE, MARKER FOR DETECTING DEGRADED BLOOD PLASMA SAMPLE, AND MARKER FOR DETECTING DEGRADED SERUM SAMPLE” (SHIMADZU CORPORATION, priority 2019, published 2022)

How the values were obtained:
Type in all cases: physicochemical, human
[1] = LC/MS of blood plasma sample: time from blood collection to centrifugation (Table D); settings: for Rate of increase or decrease: detection intensity relative to 1 at 15 minutes; for Rate of increase or decrease / Increase or decrease: blood collection to centrifugation; for Increase or decrease: detection intensity; for Rate of increase or decrease (second value, decrease) / Rate of increase or decrease (first value, increase): different from individual to individual, relative to 1 at 15 minutes, collection to centrifugation; for Rate of increase or decrease (second value, decrease): individuals with decrease; for Rate of increase or decrease (first value, increase): individuals with increase
Outline: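 Healthy-subject blood (5 mL, EDTA) cooled and held at 4 °C before centrifugation (4 °C, 3000 rpm, 15 min), with plasma then frozen. LC/MS on Discovery HS F5-3 column at 40 °C, 0.1% formic acid water/acetonitrile, 0.25 mL/min, electrospray, MRM; intensities relative to 15 min collection-to-centrifugation set as 1.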

[2] = LC/MS of blood plasma sample: number of times of freezing and thawing (Table F); settings: for Rate of increase or decrease: detection intensity relative to 1 at 2 times; for Increase or decrease: detection intensity
Outline: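 Human blood from a healthy subject drawn into EDTA tubes, cooled to 4° C within 1 min or after ≥5 min, centrifuged at 4° C, 3000 rpm, 15 min. Plasma frozen, then freeze-thawed 2, 4, 6 or 10 times and analysed by LC/MS (ESI, MRM). Intensities expressed relative to 2 freeze-thaw cycles set as 1.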

[3] = LC/MS of serum sample: time from blood collection to centrifugation (Table J); settings: for Increase or decrease / Time when compound is affected: serum sample, LC/MS; for Increase or decrease: detection intensity vs 15 minutes from blood collection to centrifugation; for Time when compound is affected: time from blood collection to centrifugation, detection intensity changed by 30% or more vs 15 minutes
Outline: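 Serum from blood centrifuged at room temperature, 3500 rpm, 5 min, then frozen; analysed by LC/MS on a Discovery HS F5-3 column at 40 °C. Mobile phase: 0.1% formic acid in water/acetonitrile, 0.25 mL/min, electrospray MRM. Values are intensity relative to a 15 min collection-to-centrifugation time.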

[4] = LC/MS of serum sample: time from centrifugation to isolation (Table K); design: key to Rate of increase or decrease: detection intensity relative to the 30-minute value set as 1; settings: for Increase or decrease / Time when compound is affected: serum sample, LC/MS; for Increase or decrease: detection intensity vs 30 minutes from centrifugation to isolation; for Time when compound is affected: time from centrifugation to isolation, detection intensity changed by 30% or more vs 30 minutes
Experimental: After standing, the blood sample was subjected to centrifugation under a condition of room temperature, 3500 rpm, and 5 minutes. […] After centrifugation, the blood-collecting vessel was left to stand at room temperature, and the serum was isolated during this time. Here, in order to investigate how the detection intensity of molecules contained in the sample was affected in cases where the time during which the blood-collecting vessel was left at room temperature was set to 1 hour and 6 hours as compared to that in a case where the time was set to 30 minutes, preparations were performed under the respective conditions of 30 minutes, 1 hour, and 6 hours. The obtained serum sample was frozen and stored. Here, in order to investigate how the detection intensity of molecules contained in the sample was affected in cases where freezing and thawing was performed 4 times, 6 times, and 10 times after freezing as compared to that in a case where freezing and thawing was performed 2 times after freezing, freezing and thawing was performed under the respective conditions of 2, 4, 6, and 10 times.
Frozen blood plasma samples and serum samples were subjected to GC/MS or LC/MS. In GC/MS, the blood plasma samples and serum samples were subjected to methoxymation and trimethylsilylation and then introduced to GC-MS.
Analysis column: Discovery HS F5-3 (inner diameter of 2.1 mm, length of 150 mm, film thickness of 3 μm) (Sigma-Aldrich)
Column temperature: 40° C.
(A) 0.1% formic acid (dissolved in water)
(B) 0.1% formic acid (dissolved in acetonitrile)
Flow velocity: 0.25 mL/min
Ionization method: electrospray
Temperature: • Desolvation Line (DL) temperature: 250° C. • Heat block temperature: 400° C. • Interface temperature: 300° C.
Gas flow rate: • Nebulizer gas flow rate: 3.0 L/min • Drying gas flow rate: 10.0 L/min • Heating gas flow rate: 10.0 L/min
Mode: multiple reaction monitoring (MRM)
The rate of increase or decrease in Table K is the value of detection intensity relative to 1 that is the detection intensity in a case where the time from centrifugation to isolation is set to 30 minutes.

[5] = LC/MS of serum sample: number of times of freezing and thawing (Table M); design: key to Rate of increase or decrease: detection intensity relative to 1 at 2 freeze-thaw cycles; settings: for Rate of increase or decrease: detection intensity relative to 1 at 2 times; for Number of times when compound is affected / Increase or decrease: serum sample, LC/MS; for Number of times when compound is affected: detection intensity changed by 30% or more vs 2 times of freezing and thawing; for Increase or decrease: detection intensity vs 2 times of freezing and thawing
Outline: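 Serum was isolated at room temperature after centrifugation at room temperature, 3500 rpm, 5 minutes, then frozen and freeze-thawed 2, 4, 6 or 10 times. LC/MS used a Discovery HS F5-3 column at 40° C with formic acid water/acetonitrile, electrospray MRM. Intensity is relative to 2 freeze-thaw cycles.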

[6] = GC/MS of blood plasma sample: time from blood collection to centrifugation (Table A)
Outline: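 EDTA blood from a healthy subject was cooled at 4° C, centrifuged at 4° C, 3000 rpm, 15 minutes, and plasma was frozen. After methoxymation and trimethylsilylation, samples ran on GC/MS (BPX5 column, 60-330° C gradient, electron ionization, MRM). Intensity is relative to 15 minutes from collection to centrifugation.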

[7] = GC/MS of blood plasma sample: time from blood collection to cooling of blood (Table B); design: key to Rate of increase or decrease / Rate of increase or decrease (first value, increase): detection intensity relative to 1 at cooling time ≤1 min
Outline: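 Blood drawn at room temperature into EDTA tubes, mixed, then cooled at 4° C. within 1 minute or less versus 5 minutes or more before centrifugation (4° C., 3000 rpm, 15 minutes). Plasma was frozen, methoxymated and trimethylsilylated, and analysed by EI GC/MS in MRM mode. Values are detection intensity relative to the ≤1 minute condition.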

[8] = GC/MS of blood plasma sample: number of times of freezing and thawing (Table C)
Outline: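 EDTA plasma from a healthy subject, cooled within 1 min or after 5+ min, centrifuged 4 °C/3000 rpm/15 min, frozen, then freeze-thawed 2, 4, 6 or 10 times. Methoximated, trimethylsilylated samples run by GC/MS (BPX5 column, EI, MRM). Values are detection intensity relative to 2 freeze-thaw cycles set as 1.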

[9] = freezing and thawing 6 times vs 2 times
[10] = after 4 hours from blood collection to centrifugation, detection intensity relative to 1 at 15 minutes
[11] = after 1 hour from centrifugation to isolation, detection intensity relative to 1 at 30 minutes
[12] = after 1 hour, relative to 1 at 30 minutes, different from individual to individual, second value (decrease)
[13] = 4 times of freezing and thawing

SMILES | Rate of increase or decrease ([2]; freezing and thawing 6 times) | Increase or decrease [2, 9] | Rate of increase or decrease [3, 10] | Increase or decrease [3] | Time when compound is affected [3] | Rate of increase or decrease [4, 11] | Increase or decrease [4] | Time when compound is affected [4] | Number of times when compound is affected [5] [times] | Increase or decrease [5] | Rate of increase or decrease [4, 12] | Rate of increase or decrease [5, 13] | Increase or decrease ([1]; after 12 hours vs 15 minutes) | Rate of increase or decrease (second value, decrease) ([1]; after 12 hours) | Rate of increase or decrease (first value, increase) ([1]; after 12 hours) | other results
Nc1nc2c(ncn2[C@@H]2O[C@H](CO)[C@@H](O)[C@H]2O)c(=O)[nH]1 [Guanosine] | 0.58 | Decrease | 0.08 | Decrease | After 4 hours | 0.57 | Decrease | After 1 hour hours | 6 | Decrease | – | – | – | – | – | Rate of increase or decrease ([1]; after 6 hours): 1.57; Increase or decrease ([1]; after 6 hours vs 15 minutes): Increase; Rate of increase or decrease ([5]; 6 times of freezing and thawing): 0.62
NCCC(=O)N[C@@H](Cc1cnc[nH]1)C(=O)O [Carnosine, carnosine] | – | – | 2.83 | Increase | After 4 hours | – | Different from individual | After 1 hour hours | 4 | Decrease | 0.56 | 0.59 | – | – | – | Rate of increase or decrease ([4]; after 1 hour, relative to 1 at 30 minutes, different from individual to individual, first value (increase)): 1.41
Nc1nc2c(ncn2[C@@H]2O[C@@H]3COP(=O)(O)O[C@H]3[C@H]2O)c(=O)[nH]1 [Guanosine 3′,5′-cyclic monophosphate, guanosine 3′,5′-cyclic monophosphate] | – | – | – | Different from individual | After 4 hours | – | Different from individual | After 1 hour hours | 4 | Increase | 0.46 | 1.47 | – | – | – | Rate of increase or decrease ([3]; after 4 hours, relative to 1 at 15 minutes, different from individual to individual, first value (increase)): 3.62; Rate of increase or decrease ([3]; after 4 hours, relative to 1 at 15 minutes, different from individual to individual, second value (decrease)): 0.58
N[C@@H](CSSC[C@H](N)C(=O)O)C(=O)O [Cystine] | – | – | – | – | – | 0.67 | Decrease | After 1 hour hours | 4 | Increase | – | 1.56 | Decrease | – | – | Rate of increase or decrease ([1]; after 12 hours): 0.45; Rate of increase or decrease ([2]; freezing and thawing 10 times): 0.54; Increase or decrease ([2]; freezing and thawing 10 times vs 2 times): Decrease
C[S+]([O-])CC[C@H](N)C(=O)O (some centres unmarked) [Methionine sulfoxide] | – | – | – | Increase | After 6 hours | – | Increase | After 6 hours | 4 | Increase | – | 1.55 | Different from individual | 0.54 | 1.36 | Rate of increase or decrease ([3]; after 6 hours from blood collection to centrifugation, detection intensity relative to 1 at 15 minutes): 1.65; Rate of increase or decrease ([4]; after 6 hours from centrifugation to isolation, detection intensity relative to 1 at 30 minutes): 1.77
O=c1ccn([C@@H]2O[C@H](CO)[C@@H](O)[C@H]2O)c(=O)[nH]1 [Uridine] | 1.31 | Increase | 1.42 | Increase | After 4 hours | – | – | – | 4 | Decrease | – | 0.68 | Different from individual | 0.60 | 1.67 | Increase or decrease ([6]; detection intensity, blood collection to centrifugation, after 4 hours vs 15 minutes): Different from individual; Rate of increase or decrease (second value, decrease) ([6]; different from individual to individual, individuals with decrease, relative to 1 at 15 minutes, collection to centrifugation, after 4 hours): 0.48; Rate of increase or decrease (first value, increase) ([6]; different from individual to individual, individuals with increase, relative to 1 at 15 minutes, collection to centrifugation, after 4 hours): 1.48; Increase or decrease ([7]; detection intensity, blood collection to cooling 5 minutes or more vs 1 minute or less): Different from individual; Rate of increase or decrease (second value, decrease) ([7]; different from individual to individual, individuals with decrease, relative to 1 at 1 minute or less, collection to cooling 5 minutes): 0.64; Rate of increase or decrease (first value, increase) ([7]; different from individual to individual, individuals with increase, relative to 1 at 1 minute or less, collection to cooling 5 minutes): 2.62; Rate of increase or decrease ([8]; detection intensity relative to 1 at 2 times, freezing and thawing 6 times): 0.69; Increase or decrease ([8]; detection intensity, freezing and thawing 6 times vs 2 times): Decrease
